Results published in article PMC11606603, “The membrane domains of mammalian adenylyl cyclases are lipid receptors” (eLife, 2024).
Several values for one entry are separate records, joined by “and”; a condition that tells them apart may be missing. Equal entries are not always repeated.

Tests used:
mAC6 = biological target: T1, mAC6 (Homo sapiens, UniProt O43306); assay: AC assay, Gsα-stimulated mAC6 in membranes from transfected HEK293 cells; assay type: biochemical; settings: for activity [%] (100% = 300nM Gsα stimulation): mAC6; for mAC6 activity [%] (100% = 300nM Gsα stimulation): 20µM fatty acid concentration
T1 construct: Human mAC genes were from GenScript and fitted with a C-terminal FLAG-tag; FLAG (C); made in house; host or cells: HEK293, permanently transfected; membrane preparation
In short: (§1)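 EC50 and IC50 values come from cAMP production, read with a Cisbio cAMP kit and converted via a standard curve. Assay mix held 1 mM ATP, 2 mM MgCl2, 3 mM creatine phosphate and 60 μg/ml creatine kinase in 50 mM MOPS pH 7.5, using transfected HEK293 membranes.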

[1] = biological target: T2, HEK293 cells permanently transfected with mAC3 (Homo sapiens, UniProt O60266); assay: cAMP accumulation assay, isoproterenol-stimulated HEK-mAC3 cells; assay type: cell-based; settings: for Effect on isoproterenol-stimulated cAMP formation in HEK-mAC3: in words
T2 construct: Human mAC genes were from GenScript and fitted with a C-terminal FLAG-tag; FLAG (C); expressed in transfected cells; host or cells: HEK293, permanently transfected
T2 sequence (O60266 1-1144): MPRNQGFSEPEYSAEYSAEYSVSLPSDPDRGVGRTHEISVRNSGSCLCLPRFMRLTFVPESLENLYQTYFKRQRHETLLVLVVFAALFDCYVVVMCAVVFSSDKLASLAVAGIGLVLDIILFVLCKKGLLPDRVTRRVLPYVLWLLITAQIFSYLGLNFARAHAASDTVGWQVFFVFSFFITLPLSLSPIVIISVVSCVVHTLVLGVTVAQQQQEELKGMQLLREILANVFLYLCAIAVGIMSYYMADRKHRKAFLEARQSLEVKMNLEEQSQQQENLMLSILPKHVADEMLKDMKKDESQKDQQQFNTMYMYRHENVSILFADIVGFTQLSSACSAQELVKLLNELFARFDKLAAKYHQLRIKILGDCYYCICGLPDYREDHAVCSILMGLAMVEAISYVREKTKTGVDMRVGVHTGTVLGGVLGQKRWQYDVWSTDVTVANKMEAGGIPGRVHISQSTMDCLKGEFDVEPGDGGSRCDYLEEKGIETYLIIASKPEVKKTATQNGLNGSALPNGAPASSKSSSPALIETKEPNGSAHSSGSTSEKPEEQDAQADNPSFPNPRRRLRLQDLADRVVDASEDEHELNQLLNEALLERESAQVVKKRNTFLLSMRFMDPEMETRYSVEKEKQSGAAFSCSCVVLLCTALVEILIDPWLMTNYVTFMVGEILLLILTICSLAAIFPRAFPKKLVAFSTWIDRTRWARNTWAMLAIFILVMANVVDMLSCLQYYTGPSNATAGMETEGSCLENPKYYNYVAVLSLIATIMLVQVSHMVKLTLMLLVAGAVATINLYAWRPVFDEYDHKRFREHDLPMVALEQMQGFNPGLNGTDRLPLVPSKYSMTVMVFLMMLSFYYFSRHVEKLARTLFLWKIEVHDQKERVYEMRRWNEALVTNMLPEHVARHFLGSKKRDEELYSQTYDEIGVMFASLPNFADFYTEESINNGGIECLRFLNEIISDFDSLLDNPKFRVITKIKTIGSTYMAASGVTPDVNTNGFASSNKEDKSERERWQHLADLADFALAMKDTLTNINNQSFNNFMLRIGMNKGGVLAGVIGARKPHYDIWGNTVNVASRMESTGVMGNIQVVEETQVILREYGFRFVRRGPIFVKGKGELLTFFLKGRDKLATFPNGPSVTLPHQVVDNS
Protocol: hAC sequences were from NCBI were: ADCY1: NM_021116.3; ADCY2: NM_020546.2; ADCY3: NM_004036.4; ADCY4: NM_001198568.2; ADCY5: NM_183357.2; ADCY6: NM_015270.4; ADCY7: NM_001114.4; ADCY8: NM_001115.2; ADCY9: NM_001116.3. Human mAC genes were from GenScript and fitted with a C-terminal FLAG-tag. […] The gene was synthesized by GenScript. HEK293 cells were maintained in Dulbeccos Modified Eagle Medium (DMEM) with 10% fetal bovine serum at 37°C and 5% CO2. Transfection with AC plasmids was with PolyJet (SignaGen, Frederick, MD, USA). Permanent cell lines were generated by selection for 7 days with 600 µg/ml G418 and maintained with 300 µg/ml For membrane preparation, cells were tyrpsinized, collected by centrifugation (3000 × g, 5 min) and lysed and homogenized in 20 mM HEPES, pH 7.5, 1 mM Ethylenediaminetetraacetic acid (EDTA), 2 mM MgCl2, 1 mM Dithiothreitol (DTT), one tablet of cOmplete, EDTA-free (per 50 ml) and 250 mM sucrose by 20 strokes in a potter homogenizer on ice. Debris was removed (5 min at 1000 × g, 0°C), membranes were collected at 100,000 × g, 60 min at 0°C, suspended and stored at −80°C in 20 mM MOPS, pH 7.5, 0.5 mM EDTA, 2 mM MgCl2. […] Three cerebral cortices were dissected and homogenized in 4.5 ml cold 48 mM Tris–HCl, pH 7.4, 12 mM MgC1_2, and 0.1 mM Ethylene glycol-bis(β-aminoethyl ether)-N,N,N′,N′-tetraacetic acid (EGTA) with a Polytron hand disperser (Kinematica AG, Switzerland). […] The pellet was washed once with 5 ml 1 mM KHCO3. The final suspension in 2 ml 1 mM KHCO3 was stored in aliquots at −80°C.
HEK293 cells stably expressing mAC isoforms 3, 5, and mAC5(membr)_mAC3(cat) were plated at 2500–10,000 cells/well into 384-well plates. […] Addition of Cisbio HTRF detection reagents stopped the reaction and cAMP levels were determined.

mAC2 = biological target: T3, mAC2 (Homo sapiens, UniProt Q08462); assay: AC assay, Gsα-stimulated mAC2 in membranes from transfected HEK293 cells; assay type: biochemical; settings: for mAC2 activity [%] (100% = 300nM Gsα stimulation); 20µM fatty acid concentration: Figure 5-figure supplement 1 left; for mAC2 activity [%] (100% = 300nM Gsα stimulation): Figure 5 B
T3 construct: Human mAC genes were from GenScript and fitted with a C-terminal FLAG-tag; FLAG (C); made in house; host or cells: HEK293, permanently transfected; membrane preparation
In short: as §1

T3 sequence (Q08462 whole entry): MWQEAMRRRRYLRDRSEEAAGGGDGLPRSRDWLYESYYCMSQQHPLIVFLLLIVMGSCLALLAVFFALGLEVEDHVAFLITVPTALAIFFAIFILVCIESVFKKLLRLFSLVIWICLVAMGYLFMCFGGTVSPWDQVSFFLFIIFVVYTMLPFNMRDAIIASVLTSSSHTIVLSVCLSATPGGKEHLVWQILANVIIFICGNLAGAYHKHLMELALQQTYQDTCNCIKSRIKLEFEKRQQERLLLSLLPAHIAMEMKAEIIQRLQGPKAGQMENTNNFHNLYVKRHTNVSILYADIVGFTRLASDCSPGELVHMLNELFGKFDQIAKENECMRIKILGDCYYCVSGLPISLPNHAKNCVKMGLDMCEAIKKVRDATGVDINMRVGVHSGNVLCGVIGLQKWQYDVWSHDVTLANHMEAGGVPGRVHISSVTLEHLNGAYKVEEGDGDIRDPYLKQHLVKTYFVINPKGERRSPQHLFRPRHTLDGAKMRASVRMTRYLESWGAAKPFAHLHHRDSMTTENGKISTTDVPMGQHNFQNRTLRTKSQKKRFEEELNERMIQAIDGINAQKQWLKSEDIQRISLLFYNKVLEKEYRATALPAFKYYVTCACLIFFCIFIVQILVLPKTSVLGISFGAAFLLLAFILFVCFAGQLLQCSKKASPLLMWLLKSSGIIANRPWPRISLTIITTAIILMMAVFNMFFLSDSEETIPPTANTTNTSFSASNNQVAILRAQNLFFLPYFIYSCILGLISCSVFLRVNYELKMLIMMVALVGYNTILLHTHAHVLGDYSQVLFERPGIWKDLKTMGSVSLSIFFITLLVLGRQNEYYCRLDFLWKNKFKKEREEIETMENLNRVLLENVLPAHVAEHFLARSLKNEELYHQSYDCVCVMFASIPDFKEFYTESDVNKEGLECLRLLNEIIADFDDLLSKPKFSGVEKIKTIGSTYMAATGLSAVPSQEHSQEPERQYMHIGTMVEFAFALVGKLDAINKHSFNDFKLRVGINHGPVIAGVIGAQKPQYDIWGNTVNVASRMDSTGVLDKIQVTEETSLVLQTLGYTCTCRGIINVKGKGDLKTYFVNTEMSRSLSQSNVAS
T3 sequence (P63092 2-394 Q227L partner): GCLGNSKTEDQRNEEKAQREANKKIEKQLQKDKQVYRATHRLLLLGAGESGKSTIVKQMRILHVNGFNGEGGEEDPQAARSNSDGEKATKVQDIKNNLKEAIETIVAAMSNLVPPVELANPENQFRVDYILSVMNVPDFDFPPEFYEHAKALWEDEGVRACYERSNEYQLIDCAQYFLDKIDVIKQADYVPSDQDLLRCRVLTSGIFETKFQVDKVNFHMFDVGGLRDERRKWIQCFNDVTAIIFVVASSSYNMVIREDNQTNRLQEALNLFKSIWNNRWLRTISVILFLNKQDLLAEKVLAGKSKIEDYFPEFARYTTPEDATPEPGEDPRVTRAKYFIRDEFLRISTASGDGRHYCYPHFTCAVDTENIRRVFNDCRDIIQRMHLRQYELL
T1 sequence (O43306 whole entry): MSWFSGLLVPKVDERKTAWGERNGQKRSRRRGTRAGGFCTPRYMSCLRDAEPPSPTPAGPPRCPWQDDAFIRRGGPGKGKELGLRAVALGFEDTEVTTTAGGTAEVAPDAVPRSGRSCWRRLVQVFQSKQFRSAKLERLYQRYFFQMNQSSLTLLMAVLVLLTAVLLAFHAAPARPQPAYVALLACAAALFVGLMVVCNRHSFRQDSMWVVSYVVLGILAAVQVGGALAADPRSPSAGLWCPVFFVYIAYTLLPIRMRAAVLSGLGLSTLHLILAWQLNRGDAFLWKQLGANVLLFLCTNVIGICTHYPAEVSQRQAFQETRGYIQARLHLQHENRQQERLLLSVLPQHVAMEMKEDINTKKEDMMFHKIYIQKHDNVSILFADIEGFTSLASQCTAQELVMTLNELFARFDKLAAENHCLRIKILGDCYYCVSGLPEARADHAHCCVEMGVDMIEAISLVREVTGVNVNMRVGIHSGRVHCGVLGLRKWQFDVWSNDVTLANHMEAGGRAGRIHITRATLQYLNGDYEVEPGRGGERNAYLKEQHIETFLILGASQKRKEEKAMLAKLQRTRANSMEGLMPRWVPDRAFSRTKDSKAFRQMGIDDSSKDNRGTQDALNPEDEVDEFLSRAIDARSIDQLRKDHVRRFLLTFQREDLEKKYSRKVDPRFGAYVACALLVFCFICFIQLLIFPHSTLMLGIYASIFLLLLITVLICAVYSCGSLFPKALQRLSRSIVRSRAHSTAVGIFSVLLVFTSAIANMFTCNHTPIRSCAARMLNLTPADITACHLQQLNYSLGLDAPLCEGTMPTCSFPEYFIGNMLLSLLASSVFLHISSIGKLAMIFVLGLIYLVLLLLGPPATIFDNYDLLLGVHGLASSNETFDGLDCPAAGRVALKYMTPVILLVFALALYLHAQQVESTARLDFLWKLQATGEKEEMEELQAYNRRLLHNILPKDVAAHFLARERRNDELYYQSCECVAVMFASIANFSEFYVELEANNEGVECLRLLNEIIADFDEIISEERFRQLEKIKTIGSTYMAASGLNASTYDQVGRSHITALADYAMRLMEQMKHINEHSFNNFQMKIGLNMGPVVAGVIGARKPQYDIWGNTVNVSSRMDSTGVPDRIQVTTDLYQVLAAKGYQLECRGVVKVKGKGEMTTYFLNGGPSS

CCCCC/C=C\C/C=C\C/C=C\C/C=C\CCCC(=O)NCCO [Anandamide, arachidonoylethanolamide]
IC50 (mAC6; attenuation of 300 nM Gsα-stimulated activity): 23 µM and 22 µM | activity [%] (100% = 300nM Gsα stimulation) (mAC6; Anandamide 0.1 µM): 100% | activity [%] (100% = 300nM Gsα stimulation) (mAC6; Anandamide 0.5 µM): 100% and 94% | activity [%] (100% = 300nM Gsα stimulation) (mAC6; Anandamide 1 µM): 89% | activity [%] (100% = 300nM Gsα stimulation) (mAC6; Anandamide 20 µM): 89% | activity [%] (100% = 300nM Gsα stimulation) (mAC6; Anandamide 30 µM): 60% and 59% and 57% and 63% and 40% | activity [%] (100% = 300nM Gsα stimulation) (mAC6; Anandamide 35 µM): 73% | activity [%] (100% = 300nM Gsα stimulation) (mAC6; Anandamide 100 µM): 26% | Effect on isoproterenol-stimulated cAMP formation in HEK-mAC3 [1]: no effect

CCCCC/C=C\C/C=C\C/C=C\C/C=C\CCCC(=O)O [Arachidonic acid, Arachidonic ((5Z,8Z,11Z,14Z)-eicosatetraenoic) acid]
mAC2 activity [%] (100% = 300nM Gsα stimulation); 20µM fatty acid concentration (mAC2; 20 µM): 133% and 137% and 152% and 99% and 147%

CCCCCCCC/C=C\CCCCCCCC(=O)O [Oleic acid, Oleic ((9Z)-octadecenoic) acid]
Effect of lipid on 300 nM Gsα-stimulated mAC2 (mAC2; 20 µM, in words): significantly enhanced | mAC2 activity [%] (100% = 300nM Gsα stimulation); 20µM fatty acid concentration (mAC2; 20 µM): 252% and 212% and 173% and 181% and 196% and 228% and 168% | mAC2 activity [%] (100% = 300nM Gsα stimulation) (mAC2; oleic acid 0.3 µM): 100% | mAC2 activity [%] (100% = 300nM Gsα stimulation) (mAC2; oleic acid 1 µM): 98% and 100% and 117% and 87% | mAC2 activity [%] (100% = 300nM Gsα stimulation) (mAC2; oleic acid 3 µM): 82% and 99% and 116% and 107% | mAC2 activity [%] (100% = 300nM Gsα stimulation) (mAC2; oleic acid 6 µM): 120% and 95% and 119% and 162% and 110% and 87% | mAC2 activity [%] (100% = 300nM Gsα stimulation) (mAC2; oleic acid 10 µM): 157% and 167% and 142% and 171% and 162% and 123% | mAC2 activity [%] (100% = 300nM Gsα stimulation) (mAC2; oleic acid 20 µM): 196% and 228% and 168% and 252% and 212% and 173% and 181% | EC50 (mAC2; enhancement of 300 nM Gsα-stimulated activity): 8.6 µM | mAC6 activity [%] (100% = 300nM Gsα stimulation) (mAC6): 92% and 80% and 133% | Effect of lipid on 300 nM Gsα-stimulated mAC6 (mAC6; 20 µM, in words): unaffected | mAC activity [%] (100% = 300nM Gsα stimulation); 20µM Oleic acid concentration, mAC6 (mAC6; Figure 5 A, 20 µM oleic acid, 300 nM Gsα): 92% and 80% and 133% | EC50 ([1]; 2.5 µM isoproterenol): 0.5 µM | enhancement of cAMP formation in HEK-mAC3 ([1]; 2.5 µM isoproterenol): 1.5 fold | AC activity (%); 100%= 2.5µM Isoproterenol stimulation ([1]; HEK-mAC3, oleic acid 0.01 µM): 132% | AC activity (%); 100%= 2.5µM Isoproterenol stimulation ([1]; HEK-mAC3, oleic acid 0.03 µM): 145% and 87% | AC activity (%); 100%= 2.5µM Isoproterenol stimulation ([1]; HEK-mAC3, oleic acid 0.06 µM): 118% and 89% | AC activity (%); 100%= 2.5µM Isoproterenol stimulation ([1]; HEK-mAC3, oleic acid 0.1 µM): 122% and 118% and 127% and 150% | AC activity (%); 100%= 2.5µM Isoproterenol stimulation ([1]; HEK-mAC3, oleic acid 0.3 µM): 130% and 163% | AC activity (%); 100%= 2.5µM Isoproterenol stimulation ([1]; HEK-mAC3, oleic acid 0.5 µM): 140% and 92% | AC activity (%); 100%= 2.5µM Isoproterenol stimulation ([1]; HEK-mAC3, oleic acid 0.6 µM): 135% and 121% and 113% and 161% | AC activity (%); 100%= 2.5µM Isoproterenol stimulation ([1]; HEK-mAC3, oleic acid 3 µM): 190% and 191% and 198% and 119% | AC activity (%); 100%= 2.5µM Isoproterenol stimulation ([1]; HEK-mAC3, oleic acid 10 µM): 199% and 123% and 137% and 198% and 118% and 119% | AC activity (%); 100%= 2.5µM Isoproterenol stimulation ([1]; HEK-mAC3, oleic acid 50 µM): 187% and 186% and 134%

CCCCCCCCCCCCCCCCCC(=O)O [Stearic acid, Stearic (octadecanoic) acid]
mAC2 activity [%] (100% = 300nM Gsα stimulation); 20µM fatty acid concentration (mAC2; 20 µM): 100% and 101% and 84% and 89% | mAC6 activity [%] (100% = 300nM Gsα stimulation) (mAC6): 88% and 61% and 94% and 93% | Effect on isoproterenol-stimulated cAMP formation in HEK-mAC3 [1]: inactive
